Assay results: ChEMBL document CHEMBL3745656, “Discovery of Inhibitors That Overcome the G1202R Anaplastic Lymphoma Kinase Resistance Mutation” (J Med Chem, 2015)

Columns and labels:
[1] = Plasma concentration in mouse at 2 mg/kg, iv after 2 hrs; type: ADME, organism-based
[2] = Plasma concentration in mouse at 10 mg/kg, po after 2 hrs; type: ADME, organism-based
[3] = Plasma concentration in mouse at 2 mg/kg, iv after 8 hrs; type: ADME, organism-based
[4] = Plasma concentration in mouse at 10 mg/kg, po after 8 hrs; type: ADME, organism-based
in vivo [5] = conditions: mouse, brain, iv, 2 mg/kg
Description: Drug level in mouse brain at 2 mg/kg, iv after 8 hrs

in vivo [6] = conditions: mouse, brain, po, 10 mg/kg
Description: Drug level in mouse brain at 10 mg/kg, po after 8 hrs

SMILES | concentration at 2 h [1] [nM] | concentration at 2 h [2] [nM] | concentration at 8 h [3] [nM] | concentration at 8 h [4] [nM] | concentration at 8 h (in vivo [5]) [nM] | concentration at 8 h (in vivo [6]) [nM]
CCc1cc2c(cc1-c1cnn(CCCN(C)C)c1)C(C)(C)c1[nH]c3cc(C#N)ccc3c1C2=O | 210 | 210 | 50 | 170 | 80 | 
CCc1cc2c(cc1-c1cnn(CC(=O)N(C)C)c1)C(C)(C)c1[nH]c3cc(C#N)ccc3c1C2=O |  |  |  |  | 4 | 4
